Data as given in US10736897B2, “Compounds and methods of use thereof for treatment of cancer” (Araxes Pharma LLC, priority 2017, dated 2020).

Each molecule was assayed against T1, KRAS G12C 1-169, his-tagged protein, GDP-loaded (Homo sapiens, UniProt P01116, G12C) (assay: Biochemical assay: covalent modification of KRAS G12C measured by mass spectrometry (RapidFire/TOF or Q-Exactive)). Settings: Modification Activity; modification percentage from deconvoluted MS peak intensities; compound concentration and incubation time for Table 2 not stated.
T1 construct: KRAS G12C 1-169, his-tagged protein, GDP-loaded; His tag
Format: binding
Protocol: Test compounds are prepared as 10 mM stock solutions in DMSO (Fisher cat # BP-231-100). KRAS G12C 1-169, his-tagged protein, GDP-loaded is diluted to 2 μM or 0.5 μM in buffer (20 mM Hepes, 150 mM NaCl, 1 mM MgCl2). Compounds are tested for activity as follows:
Compounds are diluted to 50× final test concentration in DMSO in 96-well storage plates. Compound stock solutions are vortexed before use and observed carefully for any sign of precipitation. Dilutions are as follow: • For 100 μM final compound concentration, compounds are diluted to 5000 μM (5 μL 10 mM compound stock+5 μL DMSO and mixed well by pipetting. • For 30 μM final compound concentration, compounds are diluted to 1500 μM (3 μL 10 mM compound stock+17 μL DMSO) and mixed well by pipetting. • For 10 μM final compound concentration, compounds are diluted to 500 μM (2 μL 10 mM compound stock+38 μL DMSO) and mixed well by pipetting. 49 μL of the stock protein solution is added to each well of a 96-well PCR plate (Fisher cat #1423027). 1 μl of the diluted 50× compounds are added to appropriate wells in the PCR plate using 12-channel pipettor. Reactions are mixed carefully and thoroughly by pipetting up/down with a 200 μL multi-channel pipettor. The plate is sealed well with aluminum plate seal, and stored in drawer at room temperature for 10 minutes, 30 minutes, 2 hours or 24 hours. 5 μL of 2% formic acid (Fisher cat # A117) in de-ionized H2O is then added to each well followed by mixing with a pipette. The plate is then resealed with aluminum seal and stored on dry ice until analyzed as described below.
The above described assays are analyzed by mass spectrometry according to one of the following two procedures:
The MS instrument is set to positive polarity, 2 GHz resolution, and low mass (1700) mode and allowed to equilibrate for 30 minutes. The instrument is then calibrated, switched to acquisition mode and the appropriate method loaded.
After another 30 minute equilibration time, a blank batch (i.e., buffer) is run to ensure equipment is operating properly. The samples are thawed at 37° C. for 10 minutes, briefly centrifuged, and transfer to the bench top. Wells A1 and H12 are spiked with 1 μL 500 μM internal standard peptide, and the plates centrifuged at 2000×g for 5 minutes. The method is then run and masses of each individual well recorded.
The masses (for which integration data is desired) for each well are pasted into the platemap and exported from the analysis. Masses for the internal standards are exported as well. The data at 50 ppm is extracted for the +19 charge state, and identity of well A1 is assigned using the internal standard spike and integrated. Peak data is exported as a TOF list and the above steps are repeated individually, for the +20, 21, 22, 23, 24, and 25 charge states.
The masses and peak intensities of KRAS G12C protein species are measured using a Dionex RSLCnano system (Thermo Scientific) connected to a Q Exactive Plus mass spectrometer (Thermo Scientific).
[…] of sample is each loaded onto a Aeris™ 3.6 μm WIDEPORE C4 200 Å, LC Column 50×2.1 mm column maintained at 40° C. at a flow rate of 600 μL/min with […] (0.1% formic acid in acetonitrile). The liquid chromatography conditions are 20% solvent B for 1 minute, 20% to 60% solvent B for 1.5 minutes, 60% to 90% solvent for 0.5 minute, 90% solvent B for 0.2 minute, 90% to 20% solvent B for 0.2 minute, and then equilibrated for 1.6 minute before the following sample injection. The flow rate is maintained at 600 μL/min throughout the sample analysis.
The mass spectrometer is operated in profile mode at a resolution of 17500, 5 microscans, using 50 msec max injection time and an AGC target of 1×10^6, and a full mass range from 800-1850 m/z is recorded. The HCD trapping gas is optimized for maximum sensitivity for intact proteins. […]

SMILES	Binding %
C=CC(=O)N1C[C@H](C)N(c2ncnc3c(F)c(-c4c(C)ccc5cnn(C)c45)c(Cl)cc23)C[C@H]1C (atropisomer, axis not shown) [Compound 8, 1-((2R,5S)-4-((R)-6-chloro-7-(1,6-dimethyl-1H-indazol-7-yl)-8-fluoroquinazolin-4-yl)-2,5-dimethylpiperazin-1-yl)prop-2-en-1-one]	+++ (+++ indicates binding activity greater than 85%)
C=CC(=O)N1[C@H](C)CN(c2ncnc3c(F)c(-c4c(C)ccc5cnn(C)c45)c(Cl)cc23)C[C@@H]1C (atropisomer, axis not shown) [Compound 9, 1-((2S,6R)-4-((S)-6-chloro-7-(1,6-dimethyl-1H-indazol-7-yl)-8-fluoroquinazolin-4-yl)-2,6-dimethylpiperazin-1-yl)prop-2-en-1-one]	+ (+ indicates binding activity greater than 0% and up to 50%)
C=CC(=O)N1[C@H](C)CN(c2ncnc3c(F)c(-c4c(C)ccc5cnn(C)c45)c(Cl)cc23)C[C@@H]1C (atropisomer, axis not shown) [Compound 10, 1-((2S,6R)-4-((R)-6-chloro-7-(1,6-dimethyl-1H-indazol-7-yl)-8-fluoroquinazolin-4-yl)-2,6-dimethylpiperazin-1-yl)prop-2-en-1-one]	++ (++ indicates binding activity from 50 to 85%)
C=CC(=O)N1C[C@H](C)N(c2ncnc3c(F)c(-c4c(C)ccc5[nH]nc(N)c45)c(Cl)cc23)C[C@H]1C [Compound 5, 1-((2R,5S)-4-((R)-7-(3-amino-5-methyl-1H-indazol-4-yl)-6-chloro-8-fluoroquinazolin-4-yl)-2,5-dimethylpiperazin-1-yl)prop-2-en-1-one]	++ (++ indicates binding activity from 50 to 85%)
C=CC(=O)N1C[C@H](C)N(c2ncnc3c(F)c(-c4c(C)ccc5[nH]nc(N)c45)c(Cl)cc23)C[C@H]1C [Compound 6, 1-((2R,5S)-4-((S)-7-(3-amino-5-methyl-1H-indazol-4-yl)-6-chloro-8-fluoroquinazolin-4-yl)-2,5-dimethylpiperazin-1-yl)prop-2-en-1-one]	+ (+ indicates binding activity greater than 0% and up to 50%)
C=CC(=O)N1C[C@H](C)N(c2ncnc3c(F)c(-c4c(C)ccc5cnn(C)c45)c(Cl)cc23)C[C@H]1C [Compound 7, 1-((2R,5S)-4-((S)-6-chloro-7-(1,6-dimethyl-1H-indazol-7-yl)-8-fluoroquinazolin-4-yl)-2,5-dimethylpiperazin-1-yl)prop-2-en-1-one]	+ (+ indicates binding activity greater than 0% and up to 50%)
C=CC(=O)N1CCN(c2c(C#N)cnc3c(F)c(-c4c(C)ccc5cnn(C)c45)c(Cl)cc23)CC1 [Compound 11, 4-(4-acryloylpiperazin-1-yl)-6-chloro-7-(1,6-dimethyl-1H-indazol-7-yl)-8-fluoroquinoline-3-carbonitrile]	+++ (+++ indicates binding activity greater than 85%)
C=CC(=O)N1CCN(c2c(C#N)cnc3c(F)c(-c4c(C)ccc5[nH]nc(C)c45)c(Cl)cc23)CC1 [Compound 12, 4-(4-acryloylpiperazin-1-yl)-6-chloro-7-(3,5-dimethyl-1H-indazol-4-yl)-8-fluoroquinoline-3-carbonitrile]	++ (++ indicates binding activity from 50 to 85%)
C=CC(=O)N1CCN(c2c(C#N)cnc3c(F)c(-c4c(C)ccc5[nH]nc(C6CC6)c45)c(Cl)cc23)CC1 [Compound 13, 4-(4-acryloylpiperazin-1-yl)-6-chloro-7-(3-cyclopropyl-5-methyl-1H-indazol-4-yl)-8-fluoroquinoline-3-carbonitrile]	+++ (+++ indicates binding activity greater than 85%)
C=CC(=O)N1CCN(c2c(C#N)cnc3c(F)c(-c4c(C)ccc5cnn(C6CC6)c45)c(Cl)cc23)CC1 [Compound 14, 4-(4-acryloylpiperazin-1-yl)-6-chloro-7-(1-cyclopropyl-6-methyl-1H-indazol-7-yl)-8-fluoroquinoline-3-carbonitrile]	+++ (+++ indicates binding activity greater than 85%)
C=CC(=O)N1CCN(c2cnnc3cc(-c4c(C)ccc5cnn(C)c45)c(Cl)cc23)CC1 [Compound 15, 1-(4-(6-chloro-7-(1,6-dimethyl-1H-indazol-7-yl)cinnolin-4-yl)piperazin-1-yl)prop-2-en-1-one]	+ (+ indicates binding activity greater than 0% and up to 50%)
C=CC(=O)N1CCN(c2cnnc3cc(-c4c(C)ccc5cnn(C6CC6)c45)c(Cl)cc23)CC1 [Compound 16, 1-(4-(6-chloro-7-(1-cyclopropyl-6-methyl-1H-indazol-7-yl)cinnolin-4-yl)piperazin-1-yl)prop-2-en-1-one]	+ (+ indicates binding activity greater than 0% and up to 50%)
C=CC(=O)N1CCN(c2cnnc3cc(-c4c(C)ccc5[nH]nc(C)c45)c(Cl)cc23)CC1 [Compound 17, 1-(4-(6-chloro-7-(3,5-dimethyl-1H-indazol-4-yl)cinnolin-4-yl)piperazin-1-yl)prop-2-en-1-one]	+ (+ indicates binding activity greater than 0% and up to 50%)
C=CC(=O)N1CCN(c2cnnc3cc(-c4c(C)ccc5[nH]nc(C6CC6)c45)c(Cl)cc23)CC1 [Compound 18, 1-(4-(6-chloro-7-(3-cyclopropyl-5-methyl-1H-indazol-4-yl)cinnolin-4-yl)piperazin-1-yl)prop-2-en-1-one]	+ (+ indicates binding activity greater than 0% and up to 50%)
C=CC(=O)N1C[C@H](C)N(c2c(C#N)cnc3c(F)c(-c4c(C)ccc5cnn(C)c45)c(Cl)cc23)C[C@H]1C [Compound 19, 4-((2S,5R)-4-acryloyl-2,5-dimethylpiperazin-1-yl)-6-chloro-7-(1,6-dimethyl-1H-indazol-7-yl)-8-fluoroquinoline-3-carbonitrile]	+ (+ indicates binding activity greater than 0% and up to 50%)
C=CC(=O)N1C[C@H](C)N(c2c(C#N)cnc3c(F)c(-c4c(C)ccc5cnn(C6CC6)c45)c(Cl)cc23)C[C@H]1C [Compound 20, 4-((2S,5R)-4-acryloyl-2,5-dimethylpiperazin-1-yl)-6-chloro-7-(1-cyclopropyl-6-methyl-1H-indazol-7-yl)-8-fluoroquinoline-3-carbonitrile]	+ (+ indicates binding activity greater than 0% and up to 50%)
C=CC(=O)N1C[C@H](C)N(c2c(C#N)cnc3c(F)c(-c4c(C)ccc5[nH]nc(C)c45)c(Cl)cc23)C[C@H]1C [Compound 21, 4-((2S,5R)-4-acryloyl-2,5-dimethylpiperazin-1-yl)-6-chloro-7-(3,5-dimethyl-1H-indazol-4-yl)-8-fluoroquinoline-3-carbonitrile]	+ (+ indicates binding activity greater than 0% and up to 50%)
C=CC(=O)N1[C@H](C)CN(c2c(C#N)cnc3c(F)c(-c4c(C)ccc5cnn(C)c45)c(Cl)cc23)C[C@@H]1C [Compound 22, 4-((3S,5R)-4-acryloyl-3,5-dimethylpiperazin-1-yl)-6-chloro-7-(1,6-dimethyl-1H-indazol-7-yl)-8-fluoroquinoline-3-carbonitrile]	++ (++ indicates binding activity from 50 to 85%)
C=CC(=O)N1CCN(c2cc(C(F)(F)F)nc3c(F)c(-c4c(C)ccc5cnn(C)c45)c(Cl)cc23)CC1 [Compound 23, 1-(4-(6-chlroo-7-(1,6-dimethyl-1H-indazol-7-yl)-8-fluoro-2-(trifluoromethyl)quino-lin-4-yl)piperazin-1-yl)prop-2-en-1-one]	+ (+ indicates binding activity greater than 0% and up to 50%)
